Data on one compound can be found in patent publication US20240228491A1, “METHIONINE ADENOSYLTRANSFERASE INHIBITOR, PREPARATION METHOD THEREFOR AND APPLICATION THEREOF” (SCINNOHUB PHARMACEUTICAL CO., LTD., priority 2021, published 2024).

One series has as its system HCT116 MTAP-/- cells. The experiment in a line: Activity test of HCT116 MTAP gene homozygous deletion cells (CellTiter-Glo). In kind it is cell-based. Particulars: Homo sapiens, HCT-116, 120 h incubation, read-out: HCT116 MTAP-/- Cell IC50. The method in brief: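 Cells seeded at 1000-3000/well in RPMI-1640 + 10% FBS, serum-starved 4 h, then treated with compound in complete medium for 120 h at 37 °C, 5% CO2. Viability read by CellTiter-Glo luminescence after 60 min; % inhibition versus untreated and cell-free wells, IC50 from dose-response fit.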
Background: ATP-based viability assays read luminescence as a measure of living cells.

Series [1] is described as follows: In vivo pharmacokinetic study in SD rats. Particulars: SD rat, plasma; for AUC(0-t): read-out: Area under curve AUC(0-t); for half-life: read-out: Half life T1/2 (converted); for Cmax: read-out: Maximal concentration Cmax. On the procedure:
Species: SD rat. Source: Charles River Laboratory Animal Technology Co., Ltd. Number: 3 rats per dosage group.
1.1 An appropriate amount of the test sample was accurately weighed, into which 5% DMSO, 10% polyethylene glycol-15 hydroxystearate, 85% normal saline (all in volume percent) were added sequentially, and were fully mixed via vortex or ultrasound, to obtain the dosing solution with a test sample concentration of 0.2 mg/mL for intravenous administration.
1.2 An appropriate amount of the test sample was accurately weighed, into which 5% DMSO, 10% polyethylene glycol-15 hydroxystearate, 85% normal saline (all in volume percent) were added sequentially, and were fully mixed via vortex or ultrasound, to obtain the dosing solution with a test sample concentration of 0.5 mg/mL for oral gavage administration.
Weighing was performed before administration, and the administration amount was calculated according to the body weight. The drug was administered orally by gavage or intravenously.
On the day of the test, 100 μL of blood was collected via the jugular sinus at each set time point, and the whole blood samples were placed in anticoagulation tubes containing EDTA-K2. Whole blood samples were centrifuged at 1500 g for 10 min to separate the plasma, and the upper plasma samples were collected into sample tubes. Biological samples were stored at −40° C. to −20° C. for analysis.
According to the requirements of SOP-BA-002 (Liquid Mass Spectrometry for biological sample analysis) of Suzhou 3D BioOptima New Drug Development Co., Ltd., an LC-MS/MS analytical method was established to determine the concentrations of compounds in rat plasma, and used to determine the concentrations of compounds in the biological samples obtained in this experiment.
Pharmacokinetic parameters were calculated using the non-compartment model of Pharsight Phoenix 8.0.

The AUC(0-t) is exposure summed from dosing to a finite time, without extrapolation to infinity. In general, bioavailability refers to the share of a dose that reaches the circulation, judged against a reference dose that is usually intravenous.

Each structure is given as a SMILES string. Like-named read-outs stand apart in the source and are kept apart here.

As for `Nc1c(-c2ccc3nccnc3c2)c(=O)n(-c2ccc(Cl)cc2)c2nc(C(F)(F)F)ccc12` [Example 36], the IC50 in the series with HCT116 MTAP-/- cells stood at 7.43 nM. Moreover, in series [1] (IV 1 mg/kg), the “Apparent clearance rate Cl” value was determined as 0.745 mL/min/kg, the AUC(0-t) amounted to 17600 ng·h/mL, the half-life was 348 min and the Cmax amounted to 2710 ng/mL. Moreover, in series [1] (PO 5 mg/kg), the AUC(0-t) came out at 67100 ng·h/mL, the half-life was 548 min and the Cmax is 4140 ng/mL. The bioavailability in series [1] (PO 5 mg/kg vs IV 1 mg/kg, read-out: Bioavailability F %) was determined as 76.3%.
